Patent US20070243238A1, “Treating mouth sores with patches adhered to teeth” (priority 2006, published 2007)

Tested on: mouth sores
Test: Experimentation with amoxicillin on conventional patches for mouth sores
Assay type: in vivo, human
Details: amoxicillin powder for oral suspension massaged into conventional patch and dried
Source text: Because use of antibiotics, antibacterials, and other pharmaceutical antimicrobials causes adverse side effects, experimentation with these medications has been limited. […] Conventional amoxicillin powder for preparation of oral suspension was used, which includes sugars and other excipients. The sugars act as a binder to the oral patch. The oral suspension is massaged into the patch and dried. Preferably, the amoxicillin powder is mixed into a stronger than normal liquid before being added to the patch.

CC1(C)S[C@@H]2[C@H](NC(=O)[C@H](N)c3ccc(O)cc3)C(=O)N2[C@H]1C(=O)O [amoxicillin]
effect of medication on patch in treating mouth sores: works quite well
